This is an account of results in patent US10889591B2, “PDE9 inhibitor and use thereof” (Nanjing TransThera Biosciences Co. Ltd., priority 2017, dated 2021).

Where two headings read alike, the source gives them in different places.

The term Tmax denotes the time from dosing to the highest level. By bioavailability is commonly meant dose-corrected exposure relative to a reference, in per cent. As usually defined, the clearance is the volume of plasma or blood freed of the substance per unit of time.

The nature of data set [1]: Stability in human liver microsome. The conditions noted are these: for CLint / k / Original drug residual % at 60 min / T1/2 (min): human liver microsome 0.5 mg protein/mL, compound 1 μM; for k: slope of log remaining amount versus time; for Original drug residual % at 60 min: β-NADPH 1 mM, 37° C.; for half-life at 1 μM: human, liver microsomes. For orientation: Microsomes from liver hold many membrane-bound enzymes, among them those of drug oxidation.

A short description of data set [2]: Rat pharmacokinetic evaluation. It is filed as in vivo, SD male rats. The conditions noted are these: male, Sprague-Dawley, plasma, SD rat; for Tmax / AUC(0-t) / half-life: po, intragastric 5 mg/kg; for Tmax: median; for AUC(0-t): read-out: AUClast po; for half-life: read-out: tz1/2 po (terminal elimination half-life) (converted); for bioavailability: dose iv/po 1/5 mg/kg, read-out: F % (absolute bioavailability). The method, then:
Experimental Example 4: Rat Pharmacokinetic Evaluation of the Compounds of the Invention
Aim: The in vivo pharmacokinetic parameters of the compounds in SD male rats (purchased from Beijing Vital River Animal Technology Co., Ltd.) were evaluated and bioavailability of the compounds was examined.
Animal Administration and Sample Collection:
The solution of compounds 65, 90, 107, 158 was intragastrically administered to SD rat at a dose of 5.0 mg/kg.
The experimental compound 76 was dissolved in 30% DMF+30% PEG400+40% saline to prepare a solution. The solution of compound 76 was intragastrically administered to SD rat at a dose of 5.0 mg/kg.
The experimental compound 76 was dissolved in 30% DMF+30% PEG400+40% saline to prepare a solution.
The experimental compounds 84 and 96 were dissolved in 5% DMSO+10% PEG400+85% (28% HP-β-CD) saline to prepare a solution. The solution of compounds 84 and 96 was intragastrically administered to SD rat at a dose of 5.0 mg/kg.
The experimental compounds 84 and 96 were dissolved in 5% DMSO+10% PEG400+85% (28% HP-β-CD) saline to prepare a solution.
The animals were fixed. The tail was heated with a water bath at 10 min before each time point. About 100 μL of blood from tail vein was collected, and then placed in an anti-coagulation tube containing EDTA-K2 after collection. Blood samples were centrifuged at 8000 rpm at 4° C. for 6 min to obtain plasma samples.
The concentration of test sample was output using Analyst 1.6.1 from AB SCIEX.

Data set [3] is described as follows: Rat pharmacokinetic evaluation. In kind it is in vivo, SD male rats. The conditions noted are these: SD rat, intravenous bolus 1 mg/kg; for AUC(0-t) / clearance / half-life: male, Sprague-Dawley, plasma; for AUC(0-t): read-out: AUClast iv; for clearance: read-out: Cl_obs iv (clearance rate) (converted); for half-life: read-out: tz1/2 iv (terminal elimination half-life) (converted).

A short description of data set [4]: Canine pharmacokinetic evaluation. It is filed as in vivo. The conditions noted are these: Beagle dogs; for Vz_obs iv (apparent distribution volume) / AUC(0-inf) / half-life / bioavailability / clearance: n = 3; for Tmax / AUC(0-inf) / half-life / bioavailability / clearance: dog, plasma; for Tmax: n = 3, median; for clearance: read-out: Cl_obs iv (clearance rate) (converted). The source says:
1. Animal Administration and Sample Collection
2. Sample Analysis Method
3. Data Processing Method

The conditions of data set [5]: human.
The nature of the next data set: in vitro. The following applies: human, microsomes.
The mark [6] stands for this setting: intravenous bolus 1 mg/kg, read-out: AUCinf iv.
Setting [7] is: intravenous bolus 1 mg/kg, read-out: tz1/2 iv (terminal elimination half-life) (converted).

`CCc1cc2c(N3CCC(C)(OC)CC3)c(C#N)c(=O)[nH]c2cn1` [Compound 107, 6-ethyl-4-(4-methoxy-4-methylpiperidin-1-yl)-2-oxo-1,2-dihydro-1,7-naphthyridin-3-carbonitrile]: in data set [1], the CLint was 0.0046 mL · min^−1 · mg^−1 proteins, the “k” value was found to be 0.0023 min⁻¹, the “Original drug residual % at 60 min” value is 88.5% and the half-life at 1 μM was found to be 5.02 h. Also, in data set [2], the Tmax was found to be 0.5 h, the AUC(0-t) stood at 1940 ng·h/mL, the half-life is 2.68 h and the bioavailability came out at 56.8%. In addition, in data set [3], the “Vz_obs iv (apparent distribution volume)” value amounted to 2.13 L/kg, the AUC(0-t) came to 748 ng·h/mL, the clearance was 24.2 mL/min/kg and the half-life was 1.25 h. For the same compound, in data set [4] (intravenous bolus 1 mg/kg), the “Vz_obs iv (apparent distribution volume)” value is recorded as 2.05 L/kg and the clearance was 16 mL/min/kg. Besides, the Tmax in data set [4] (po, intragastric 1 mg/kg) came to 0.5 h. Besides, the AUC(0-inf) in data set [4] (po, intragastric 1 mg/kg, read-out: AUCinf po) came out at 757 ng·h/mL. Besides, the half-life in data set [4] (po, intragastric 1 mg/kg, read-out: tz1/2 po (terminal elimination half-life) (converted)) was 2.56 h. Moreover, in data set [4] (dose iv/po 1/1 mg/kg), the bioavailability stood at 61.5%. Moreover, the AUC(0-inf) in data set [4] (setting [6]) came to 1230 ng·h/mL. For the same compound, the half-life in data set [4] (setting [7]) is 1.64 h.

As for `COC1(C)CCN(c2c(C#N)c(=O)[nH]c3cnc(C)cc23)CC1` [Compound 158, 4-(4-methoxy-4-methylpiperidin-1-yl)-6-methyl-2-oxo-1,2-dihydro-1,7-naphthyridin-3-carbonitrile], in data set [1], the CLint is reported as 0.0026 mL · min^−1 · mg^−1 proteins, the “k” value came to 0.0013 min⁻¹, the “Original drug residual % at 60 min” value turned out to be 92.6% and the half-life at 1 μM worked out at 8.88 h.

Regarding `COC1(C)CCN(c2c(C#N)c(=O)[nH]c3cnc(C(C)(C)O)cc23)CC1` [Compound 109, 6-(2-hydroxypropan-2-yl)-4-(4-methoxy-4-methylpiperidin-1-yl)-2-oxo-1,2-dihydro-1,7-naphthyridine-3-carbonitrile], in data set [1], the CLint is reported as 0.0020 mL · min^−1 · mg^−1 proteins, the “k” value is 0.4444 min⁻¹, the “Original drug residual % at 60 min” value worked out at 91.9% and the half-life at 1 μM turned out to be 11.6 h.

For the compound `COc1cc2c(N3CCC4(CCC4)CC3)c(C#N)c(=O)[nH]c2cn1` [Compound 66, 6-methoxy-2-oxo-4-(7-azaspiro[3.5]nonane-7-yl)-1,2-dihydro-1,7-naphthyridin-3-carbonitrile], in data set [1], the “k” value was -0.515 min⁻¹ and the “Original drug residual % at 60 min” value came to 101%.

As to `COCCOc1cc2c(N3CCC(C)(OC)CC3)c(C#N)c(=O)[nH]c2cn1` [Compound 145, 4-(4-methoxy-4-methylpiperidin-1-yl)-6-(2-methoxyethoxy)-2-oxo-1,2-dihydro-1,7-naphthyridin-3-carbonitrile], in data set [1], the CLint was 0.0038 mL · min^−1 · mg^−1 proteins, the “k” value was 0.0019 min⁻¹, the “Original drug residual % at 60 min” value was determined as 88.2% and the half-life at 1 μM is 6.08 h.

In the case of `N#Cc1c(Nc2ccc(Cl)cc2)c2ccncc2[nH]c1=O` [Compound 18, 4-((4-chlorophenyl)amino)-2-oxo-1,2-dihydro-1,7-naphthyridin-3-carbonitrile], in data set [1], the CLint is given as 0.1244 mL · min^−1 · mg^−1 proteins, the “k” value amounted to 0.727 min⁻¹, the “Original drug residual % at 60 min” value came to 5.19% and the half-life at 1 μM came out at 0.186 h.

On to `N#Cc1c(N2CCC3(CCC3)CC2)c2cc(N3CC(N)C3)ncc2[nH]c1=O` [Compound 53, 6-(3-aminoazetidin-1-yl)-2-oxo-4-(7-azaspiro[3.5]nonane-7-yl)-1,2-dihydro-1,7-naphthyridin-3-carbonitrile], for which, in data set [5], the “Original drug residual % at 60 min” value was 91.4% and the “k” value was determined as 0.4821 min⁻¹. Also, the CLint in data set [5] (microsomes) is reported as 0.0022 mL · min^−1 · mg^−1 proteins. Moreover, in the data set “in vitro”, the half-life was found to be 10.5 h.

As to `CC(C)(O)c1cc2c(N3CCC4(CC3)CC4)c(C#N)c(=O)[nH]c2cn1` [Compound 84, 6-(2-hydroxypropan-2-yl)-2-oxo-4-(6-azaspiro[2.5]octane-6-yl)-1,2-dihydro-1,7-naphthyridin-3-carbonitrile], in data set [2], the Tmax worked out at 1 h, the AUC(0-t) stood at 7580 ng·h/mL, the half-life is 3.24 h and the bioavailability was 62.5%. Also, in data set [3], the “Vz_obs iv (apparent distribution volume)” value was found to be 1.16 L/kg, the AUC(0-t) stood at 2430 ng·h/mL, the clearance is 8.17 mL/min/kg and the half-life is 1.89 h.

Regarding `N#Cc1c(N2CCC3(CC2)CC3)c2cc(C(O)CO)ncc2[nH]c1=O` (stereo not drawn) [Compound 32, 6-(1,2-dihydroxyethyl)-2-oxo-4-(6-azaspiro[2.5]octane-6-yl)-1,2-dihydro-1,7-naphthyridin-3-carbonitrile], in data set [1], the “T1/2 (min)” value is reported as “→∞”, the “k” value is -0.3760 min⁻¹ and the “Original drug residual % at 60 min” value was found to be 99.8%.

On to `COC1(C)CCN(c2c(C#N)c(=O)[nH]c3cnccc23)CC1` [Compound 81, 4-(4-methoxy-4-methylpiperidin-1-yl)-2-oxo-1,2-dihydro-1,7-naphthyridin-3-carbonitrile], for which, in data set [1], the CLint is 0.0024 mL · min^−1 · mg^−1 proteins, the “k” value turned out to be 0.0012 min⁻¹, the “Original drug residual % at 60 min” value was 94.6% and the half-life at 1 μM stood at 9.63 h.

In the case of `N#Cc1c(N2CC[C@@H](n3cccn3)C2)c2ccncc2[nH]c1=O` [Compound 19, (R)-4-(3-(1H-pyrazol-1-yl)pyrrolidin-1-yl)-2-oxo-1,2-dihydro-1,7-naphthyridin-3-carbonitrile], in data set [1], the CLint is listed as 0.0012 mL · min^−1 · mg^−1 proteins, the “k” value amounted to 0.191 min⁻¹, the “Original drug residual % at 60 min” value was 93.4% and the half-life at 1 μM came out at 19.2 h.

As for `CNC(=O)c1cc2c(N3CCC4(CC3)CC4)c(C#N)c(=O)[nH]c2cn1` [Compound 96, 3-cyano-N-methyl-2-oxo-4-(6-azaspiro[2.5]octane-6-yl)-1,2-dihydro-1,7-naphthyridin-6-formamide], in data set [3], the “Vz_obs iv (apparent distribution volume)” value is on record as 0.57 L/kg, the AUC(0-t) was found to be 769 ng·h/mL, the clearance was 22 mL/min/kg and the half-life is 0.3 h.

With `Cc1cc2c(N3CCC4(CCC4)CC3)c(C#N)c(=O)[nH]c2cn1` [Compound 65, 6-methyl-2-oxo-4-(7-azaspiro[3.5]nonane-7-yl)-1,2-dihydro-1,7-naphthyridin-3-carbonitrile], the time of peak concentration (Tmax) was 0.5 h in data set [2] and 0.5 h in data set [4] (po, intragastric 2 mg/kg). For the same compound, the AUC(0-t) in data set [2] came to 3000 ng·h/mL; in data set [3], 1240 ng·h/mL. In addition, the half-life in data set [2] was 2.25 h; in data set [3] it was 1.47 h; in data set [4] (po, intragastric 2 mg/kg, read-out: tz1/2 po (terminal elimination half-life) (converted)) it was 0.47 h; in data set [4] (setting [7]) it was 0.49 h. Also, the bioavailability in data set [2] was 51.8%; in data set [4] (dose iv/po 1/2 mg/kg) it was 25.5%. Moreover, the “Vz_obs iv (apparent distribution volume)” value in data set [3] was found to be 1.75 L/kg; in data set [4] (intravenous bolus 1 mg/kg) it was 0.66 L/kg. The clearance was 13.8 mL/min/kg in data set [3] and 15.7 mL/min/kg in data set [4] (intravenous bolus 1 mg/kg). Besides, the AUC(0-inf) came to 543 ng·h/mL in data set [4] (po, intragastric 2 mg/kg, read-out: AUCinf po) and 1060 ng·h/mL in data set [4] (setting [6]).

On to `N#Cc1c(N2CCC3(CC2)CC3)c2cc(C(=O)O)ncc2[nH]c1=O` [Compound 83, 3-cyano-2-oxo-4-(6-azaspiro[2.5]octane-6-yl)-1,2-dihydro-1,7-naphthyridin-6-carboxylic acid], for which, in data set [1], the “T1/2 (min)” value is recorded as “→∞”, the “k” value came out at 0.5421 min⁻¹ and the “Original drug residual % at 60 min” value is reported as 104.1%.
